This note sets out measurements from PubChem BioAssay AID330 (DTP/NCI, 2004).

Values joined by “and” are separate entries in the source; they are usually repeats but may differ in a detail not shown here. Equal values may be shown once. Toxic doses and inconclusive results are not listed.

This experiment deals with P388 leukemia ip, CD2F1 mice, survival T/C. In words: NCI In Vivo Anticancer Drug Screen. Data for tumor model P388 Leukemia (intraperitoneal) in CD2F1 (CDF1) mice. The conditions noted are these: endpoint: median survival time, higher = longer survival. In a few lines: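 Mice carrying the transplanted tumor received test compound or vehicle. Survival was recorded in each group, and the value is the treated-group measurement divided by that of the vehicle-treated control group.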

Setting [1] is: dose: 100.0 mg/kg/injection, schedule: Q04DX003 (ip), vehicle: saline.
Where [2] appears, read: dose: 200.0 mg/kg/injection, schedule: Q04DX003 (ip), vehicle: saline.
The mark [3] stands for this setting: dose: 12.5 mg/kg/injection, schedule: Q04DX002 (ip), vehicle: saline with Tween-80.
[4] abbreviates: dose: 25.0 mg/kg/injection, schedule: Q04DX002 (ip), vehicle: saline with Tween-80.
The mark [5] stands for this setting: dose: 50.0 mg/kg/injection, schedule: Q04DX002 (ip), vehicle: saline with Tween-80.
Where [6] appears, read: dose: 100.0 mg/kg/injection, schedule: Q01DX005 (ip), vehicle: saline with Tween-80.
The mark [7] stands for this setting: dose: 200.0 mg/kg/injection, schedule: Q01DX005 (ip), vehicle: saline with Tween-80.
Setting [8] is: dose: 50.0 mg/kg/injection, schedule: Q01DX005 (ip), vehicle: saline with Tween-80.
Where [9] appears, read: dose: 50.0 mg/kg/injection, schedule: Q01DX005 (ip), vehicle: Klucel (hydroxypropylcellulose) (HPC).
Setting [10] is: dose: 100.0 mg/kg/injection, schedule: Q01DX005 (ip), vehicle: Klucel (hydroxypropylcellulose) (HPC).
Where [11] appears, read: dose: 200.0 mg/kg/injection, schedule: Q01DX005 (ip), vehicle: Klucel (hydroxypropylcellulose) (HPC).
[12] abbreviates: dose: 50.0 mg/kg/injection, schedule: Q01DX009 (ip), vehicle: saline.
The mark [13] stands for this setting: dose: 100.0 mg/kg/injection, schedule: Q01DX009 (ip), vehicle: saline.
The mark [14] stands for this setting: dose: 200.0 mg/kg/injection, schedule: Q01DX009 (ip), vehicle: saline.

Take `S=C(S)N1CCOCC1`: the T/C (dose: 50.0 mg/kg/injection, schedule: Q04DX003 (ip), vehicle: saline) was 100 % of control; the T/C under setting [1] was 100 % of control; the T/C under setting [2] was 100 % of control.

On to `CCOP(=S)(OCC)OC(=O)C(C)SSC` (configuration not stated) (tested in a mixture with another compound), for which the T/C was 101 % of control (dose: 60.0 mg/kg/injection, schedule: Q01DX005 (ip), vehicle: saline with Tween-80) and 104 % of control (dose: 120.0 mg/kg/injection, schedule: Q01DX005 (ip), vehicle: saline with Tween-80).

As for `CN(C)CCCNc1ccc(O)c2c1C(=O)c1ccccc1C2=O`, the T/C (dose: 12.5 mg/kg/injection, schedule: Q01DX009 (ip), vehicle: water) is 93 % of control; the T/C (dose: 25.0 mg/kg/injection, schedule: Q01DX009 (ip), vehicle: water) is 97 % of control; the T/C (dose: 50.0 mg/kg/injection, schedule: Q01DX009 (ip), vehicle: water) is 96 % of control; the T/C (dose: 100.0 mg/kg/injection, schedule: Q01DX009 (ip), vehicle: water) is 104 % of control.

`CSC(=S)/N=c1\ccc(C)cn1C`: the T/C by setting is: under setting [3], 100 % of control; under setting [4], 100 % of control; under setting [5], 99 % of control.

On to `O=C1c2ccccc2C(=O)N1CC[P+](Cc1ccccc1)(Cc1ccccc1)Cc1ccccc1`, for which the T/C reads like this: (dose: 0.78 mg/kg/injection, schedule: Q01DX009 (ip), vehicle: other) 105 % of control; (dose: 1.56 mg/kg/injection, schedule: Q01DX009 (ip), vehicle: other) 97 % of control; (dose: 3.13 mg/kg/injection, schedule: Q01DX009 (ip), vehicle: other) 97 % of control; (dose: 6.25 mg/kg/injection, schedule: Q01DX009 (ip), vehicle: other) 106 % of control; (dose: 12.5 mg/kg/injection, schedule: Q01DX009 (ip), vehicle: other) 99 % of control and 90 % of control; (dose: 25.0 mg/kg/injection, schedule: Q01DX009 (ip), vehicle: other) 112 % of control and 91 % of control. In addition, the T/C was 105 % of control (dose: 50.0 mg/kg/injection, schedule: Q01DX009 (ip), vehicle: other) and 89 % of control (dose: 100.0 mg/kg/injection, schedule: Q01DX009 (ip), vehicle: other).

Take `CCOC(=O)c1ccc([O-])c([I+]c2ccccc2)c1`: the T/C is, setting by setting: (dose: 50.0 mg/kg/injection, schedule: Q04DX003 (ip), vehicle: Klucel (hydroxypropylcellulose) (HPC)) 100 % of control; (dose: 100.0 mg/kg/injection, schedule: Q04DX003 (ip), vehicle: Klucel (hydroxypropylcellulose) (HPC)) 100 % of control; (dose: 200.0 mg/kg/injection, schedule: Q04DX003 (ip), vehicle: Klucel (hydroxypropylcellulose) (HPC)) 101 % of control.

For `CCCc1nnc2n1NC1(CS2)Nc2ccccc2N1`, the T/C (dose: 100.0 mg/kg/injection, schedule: Q01DX001 (ip), vehicle: saline with Tween-80) is 98 % of control; the T/C (dose: 200.0 mg/kg/injection, schedule: Q01DX001 (ip), vehicle: saline with Tween-80) was 97 % of control; the T/C (dose: 400.0 mg/kg/injection, schedule: Q01DX001 (ip), vehicle: saline with Tween-80) was 95 % of control.

Turning to `CC1=C(C)C(=O)C(C(C)(C)CC(=O)N(C)/N=N/c2nc[nH]c2C(N)=O)=C(C)C1=O`, the T/C is, setting by setting: under setting [6], 155 % of control; under setting [7], 174 % of control.

Consider `CSc1sc(C#N)c(N)c1N=Cc1ccccc1`, for which the T/C reads like this: under setting [3], 106 % of control; under setting [4], 101 % of control; under setting [5], 97 % of control.

With `CC1CC=CCC1C1OC(C)C(C)O1` (configuration not stated), the T/C under setting [8] was 110 % of control, the T/C under setting [6] was 106 % of control and the T/C under setting [7] was 109 % of control.

Take `Cc1cc2c(cc1C)C(=O)C(Br)=C(N)C2=O`: the T/C runs as follows: (dose: 25.0 mg/kg/injection, schedule: Q01DX005 (ip), vehicle: saline with Tween-80) 94 % of control; under setting [8], 100 % of control and 91 % of control; under setting [6], 87 % of control; under setting [7], 92 % of control.

For the compound `CC(C)C(NC(=O)OC(C)(C)C)C(=O)NC(CC(=O)OCc1ccccc1)C(=O)OCc1ccccc1` (configuration not stated), the T/C runs as follows: under setting [6], 88 % of control; under setting [7], 91 % of control; (dose: 400.0 mg/kg/injection, schedule: Q01DX005 (ip), vehicle: saline with Tween-80) 88 % of control.

As for `CB1NN=C(C)c2ccsc21`, under “dose: 50.0 mg/kg/injection, schedule: Q01DX009 (ip), vehicle: saline with Tween-80”, the T/C was 110 % of control.

`c1ccc2c(c1)ccc1[nH]c3ccc4ccccc4c3c12`: the T/C reads like this: (dose: 1.56 mg/kg/injection, schedule: Q01DX005 (ip), vehicle: Klucel (hydroxypropylcellulose) (HPC)) 100 % of control and 109 % of control and 111 % of control; (dose: 3.12 mg/kg/injection, schedule: Q01DX005 (ip), vehicle: Klucel (hydroxypropylcellulose) (HPC)) 107 % of control and 116 % of control and 117 % of control.

As to `COC(=O)c1cccc2c1N(C)c1c(cccc1C(=O)OC)CC2`, the T/C runs as follows: (dose: 50.0 mg/kg/injection, schedule: Q01DX009 (ip), vehicle: distilled water + Tween-80 + alcohol) 93 % of control; (dose: 100.0 mg/kg/injection, schedule: Q01DX009 (ip), vehicle: distilled water + Tween-80 + alcohol) 94 % of control; (dose: 200.0 mg/kg/injection, schedule: Q01DX009 (ip), vehicle: distilled water + Tween-80 + alcohol) 99 % of control.

For `CC1(C)[C@@H]2CC[C@]3(C)[C@H]4CC[C@]5(C)[C@@H](O)CC[C@H]5[C@@H]4CC[C@]3(O2)[C@@H]1O`, the T/C reads like this: under setting [8], 91 % of control; under setting [6], 91 % of control.

As to `CCOC(=O)CC1CCCN1Sc1ccc([N+](=O)[O-])cc1[N+](=O)[O-]` (configuration not stated), the T/C under setting [8] is 100 % of control, the T/C under setting [6] is 101 % of control and the T/C under setting [7] was 100 % of control.

Take `C(=Nc1ccc2c(c1)Cc1ccccc1-2)c1ccc2ccccc2c1`: under “dose: 400.0 mg/kg/injection, schedule: Q04DX002 (ip), vehicle: saline”, the T/C was 90 % of control.

In the case of `COC(=O)c1nnc(C(=O)OC)c2c1c1ccccc1n2C(C)=O`, the T/C was 99 % of control (dose: 100.0 mg/kg/injection, schedule: Q04DX002 (ip), vehicle: saline with Tween-80); 99 % of control (dose: 200.0 mg/kg/injection, schedule: Q04DX002 (ip), vehicle: saline with Tween-80); 99 % of control (dose: 400.0 mg/kg/injection, schedule: Q04DX002 (ip), vehicle: saline with Tween-80).

For `CC1(C)OC2(C)CCC1C1C2N1C(=O)C(c1ccccc1)c1ccccc1` (configuration not stated), the T/C is 109 % of control under setting [9], 100 % of control under setting [10] and 109 % of control under setting [11].

For the compound `CS(=O)(=O)OC[C@@H](O)[C@@H](O)COS(C)(=O)=O`, the T/C runs as follows: under setting [12], 112 % of control; (dose: 100.0 mg/kg/injection, schedule: Q01DX009 (ip), vehicle: saline sonified) 110 % of control; under setting [13], 99 % of control; (dose: 200.0 mg/kg/injection, schedule: Q01DX009 (ip), vehicle: saline sonified) 100 % of control; under setting [14], 99 % of control; (dose: 400.0 mg/kg/injection, schedule: Q01DX009 (ip), vehicle: saline sonified) 100 % of control.

As for `COc1ccc(C(C)=O)cc1OC`, the T/C is, setting by setting: under setting [1], 100 % of control; under setting [2], 100 % of control; (dose: 400.0 mg/kg/injection, schedule: Q04DX003 (ip), vehicle: saline) 100 % of control.

Take `CC(C(=O)O)c1ccc2c(c1)[nH]c1ccc(Cl)cc12` (configuration not stated): the T/C by setting is: (dose: 6.25 mg/kg/injection, schedule: Q01DX009 (ip), vehicle: saline with Tween-80) 106 % of control; (dose: 12.5 mg/kg/injection, schedule: Q01DX009 (ip), vehicle: saline with Tween-80) 106 % of control; (dose: 25.0 mg/kg/injection, schedule: Q01DX009 (ip), vehicle: saline with Tween-80) 105 % of control.

As for `Clc1ccc(-c2noc(CN3CCOCC3)n2)cc1`, the T/C is 102 % of control under setting [12], 105 % of control under setting [13] and 109 % of control under setting [14].

For the compound `c1cc2cc(-c3ccc4oc(C5=NCCN5)cc4c3)[nH]c2cc1C1=NCCN1`, the T/C under setting [9] was 163 % of control, the T/C under setting [10] was 160 % of control and the T/C under setting [11] was 193 % of control.
